ChEMBL document CHEMBL1201862, “PubChem BioAssay data set” (2004)
Calls of active or inactive are those of the source.

Experiments:
Streptokinase A = target: T1, Streptokinase A (Streptococcus pyogenes serotype M1, UniProt P10520); assay: viability-normalized secreted streptokinase activity reduction – plasminogen activation absorbance, OD405, dose response (AID 1914); format: functional, Streptococcus pyogenes M1 GAS;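 also: secreted streptokinase activity via plasminogen activation per viability signal from cell pellet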
T1 sequence (P10520 whole entry): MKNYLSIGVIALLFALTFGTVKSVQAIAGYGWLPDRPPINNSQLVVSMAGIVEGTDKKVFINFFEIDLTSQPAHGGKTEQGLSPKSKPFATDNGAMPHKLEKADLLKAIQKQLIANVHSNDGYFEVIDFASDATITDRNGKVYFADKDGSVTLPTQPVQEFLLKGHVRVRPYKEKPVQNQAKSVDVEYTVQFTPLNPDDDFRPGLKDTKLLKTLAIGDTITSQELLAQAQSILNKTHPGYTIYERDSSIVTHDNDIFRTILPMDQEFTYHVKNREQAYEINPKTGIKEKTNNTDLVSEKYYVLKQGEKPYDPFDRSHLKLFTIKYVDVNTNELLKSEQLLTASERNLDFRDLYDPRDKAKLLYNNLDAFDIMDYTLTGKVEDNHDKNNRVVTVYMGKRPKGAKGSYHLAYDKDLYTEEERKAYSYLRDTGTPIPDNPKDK

CHO = CHO cell viability loss, potency – luminescence, cytotoxicity control for TLR9-MyD88 binding inhibitor project, dose response (AID 588339); format: functional, cell-based, hamster; conditions: Cricetulus griseus;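 also: CHO cells stably coexpressing TLR9 and MyD88 fusions from primary screen; compound exposure lasted 48 hours before viability readout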
Protein RecA = target: T2, Protein RecA (Mycobacterium tuberculosis, UniProt P9WHJ3); assay: Fluorescence Cell-Free Homogeneous Dose Retest to Identify Inhibitors of RecA-Intein Splicing Activity. [Related pubchem assays (depositor defined):AID2097, AID2223, AID489010, AID492950]; format: functional
T2 sequence (P9WHJ3 whole entry): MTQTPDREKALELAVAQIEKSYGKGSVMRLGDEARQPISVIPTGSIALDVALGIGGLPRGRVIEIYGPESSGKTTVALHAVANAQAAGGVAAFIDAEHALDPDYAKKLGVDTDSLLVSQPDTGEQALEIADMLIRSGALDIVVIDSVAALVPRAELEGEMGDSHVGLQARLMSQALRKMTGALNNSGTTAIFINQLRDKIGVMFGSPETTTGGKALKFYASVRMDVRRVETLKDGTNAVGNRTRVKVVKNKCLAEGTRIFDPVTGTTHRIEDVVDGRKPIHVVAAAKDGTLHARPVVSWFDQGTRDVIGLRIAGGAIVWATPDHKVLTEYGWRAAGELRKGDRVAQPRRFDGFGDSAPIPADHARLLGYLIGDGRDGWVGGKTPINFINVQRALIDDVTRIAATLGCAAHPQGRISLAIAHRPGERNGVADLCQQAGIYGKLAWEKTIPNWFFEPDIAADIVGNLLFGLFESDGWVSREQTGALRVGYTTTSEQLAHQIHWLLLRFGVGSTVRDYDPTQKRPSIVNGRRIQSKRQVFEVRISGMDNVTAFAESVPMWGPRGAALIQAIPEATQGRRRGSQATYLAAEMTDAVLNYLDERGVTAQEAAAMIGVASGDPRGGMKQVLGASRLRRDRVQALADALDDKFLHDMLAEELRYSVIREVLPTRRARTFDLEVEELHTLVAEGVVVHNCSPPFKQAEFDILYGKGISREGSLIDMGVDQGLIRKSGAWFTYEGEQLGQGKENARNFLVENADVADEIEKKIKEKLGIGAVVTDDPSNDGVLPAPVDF

[1] = loss of viability in HepG2 cells – cell-based, CellTiter-Glo, cherry-picked, cytotoxicity control for Shn3 inhibitor project, dose response (AID 624134); format: functional
Beta Lactamase = Beta Lactamase (Pseudomonas aeruginosa, UniProt Q932Y6); assay: BLA reporter interference, concentration series – BLA reporter cells, FRET fluorescence, artefact control for TLR9-MyD88 binding inhibitor project, dose response (AID 588341); format: cell-based;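 also: cell based assay in CHO-K1 cells stably expressing beta-lactamase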
Chain of Beta Lactamase (Q932Y6 whole entry): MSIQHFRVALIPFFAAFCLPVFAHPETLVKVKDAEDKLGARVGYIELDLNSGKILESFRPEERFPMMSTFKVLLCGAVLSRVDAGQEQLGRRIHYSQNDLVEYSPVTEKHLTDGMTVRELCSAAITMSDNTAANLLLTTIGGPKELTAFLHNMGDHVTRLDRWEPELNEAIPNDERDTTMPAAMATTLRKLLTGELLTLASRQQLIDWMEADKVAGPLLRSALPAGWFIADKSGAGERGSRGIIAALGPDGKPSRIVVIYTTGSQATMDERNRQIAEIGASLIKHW

[2] = target: T3, Replicative DNA helicase DnaB (Mycobacterium tuberculosis, UniProt P9WMR3); assay: DnaB intein splicing inhibitors, dose response, biochemical, cell-free fluorescence (AID 449749); format: functional
T3 sequence (P9WMR3 whole entry): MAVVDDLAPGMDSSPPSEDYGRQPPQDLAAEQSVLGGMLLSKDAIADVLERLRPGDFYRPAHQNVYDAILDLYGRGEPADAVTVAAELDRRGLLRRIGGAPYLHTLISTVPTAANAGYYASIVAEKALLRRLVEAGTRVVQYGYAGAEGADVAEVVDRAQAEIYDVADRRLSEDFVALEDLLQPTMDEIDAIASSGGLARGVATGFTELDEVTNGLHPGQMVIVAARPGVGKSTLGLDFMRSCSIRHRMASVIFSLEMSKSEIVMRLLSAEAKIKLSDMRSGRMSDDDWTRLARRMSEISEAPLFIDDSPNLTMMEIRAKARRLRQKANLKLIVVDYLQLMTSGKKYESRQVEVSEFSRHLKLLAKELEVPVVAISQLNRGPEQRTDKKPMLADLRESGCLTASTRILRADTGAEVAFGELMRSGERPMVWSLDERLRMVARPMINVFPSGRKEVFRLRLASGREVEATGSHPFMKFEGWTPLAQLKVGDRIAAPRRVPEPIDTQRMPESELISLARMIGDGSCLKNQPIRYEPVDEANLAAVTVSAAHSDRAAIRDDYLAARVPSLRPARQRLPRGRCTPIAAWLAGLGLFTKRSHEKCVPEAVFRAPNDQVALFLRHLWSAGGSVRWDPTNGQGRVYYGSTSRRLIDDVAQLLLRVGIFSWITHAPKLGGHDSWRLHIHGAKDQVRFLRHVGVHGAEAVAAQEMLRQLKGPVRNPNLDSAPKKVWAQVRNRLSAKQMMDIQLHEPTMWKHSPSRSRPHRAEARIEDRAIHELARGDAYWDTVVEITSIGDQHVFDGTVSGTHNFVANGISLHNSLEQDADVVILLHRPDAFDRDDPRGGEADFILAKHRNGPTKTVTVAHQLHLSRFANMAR

Streptococcus = assay: GAS UMAA2166 growth inhibition – luminescence, BacTiterGlo, counter-screen for streptokinase expression inhibitor project, dose response (AID 1915); format: functional, organism-based;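 also: potency for reduction of bacterial viability or growth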
[3] = target: ATP-binding cassette sub-family B member 6 (Homo sapiens, UniProt Q9NP58); assay: concentration-dependent ABCB6 porphyrin transport blockade – K562-ABCB6 cells, flow cytometry, cherry pick 1, dose response (AID 623955); format: functional; conditions: read-out: EC50_MICROM
Chain of ATP-binding cassette sub-family B member 6 (Q9NP58 whole entry): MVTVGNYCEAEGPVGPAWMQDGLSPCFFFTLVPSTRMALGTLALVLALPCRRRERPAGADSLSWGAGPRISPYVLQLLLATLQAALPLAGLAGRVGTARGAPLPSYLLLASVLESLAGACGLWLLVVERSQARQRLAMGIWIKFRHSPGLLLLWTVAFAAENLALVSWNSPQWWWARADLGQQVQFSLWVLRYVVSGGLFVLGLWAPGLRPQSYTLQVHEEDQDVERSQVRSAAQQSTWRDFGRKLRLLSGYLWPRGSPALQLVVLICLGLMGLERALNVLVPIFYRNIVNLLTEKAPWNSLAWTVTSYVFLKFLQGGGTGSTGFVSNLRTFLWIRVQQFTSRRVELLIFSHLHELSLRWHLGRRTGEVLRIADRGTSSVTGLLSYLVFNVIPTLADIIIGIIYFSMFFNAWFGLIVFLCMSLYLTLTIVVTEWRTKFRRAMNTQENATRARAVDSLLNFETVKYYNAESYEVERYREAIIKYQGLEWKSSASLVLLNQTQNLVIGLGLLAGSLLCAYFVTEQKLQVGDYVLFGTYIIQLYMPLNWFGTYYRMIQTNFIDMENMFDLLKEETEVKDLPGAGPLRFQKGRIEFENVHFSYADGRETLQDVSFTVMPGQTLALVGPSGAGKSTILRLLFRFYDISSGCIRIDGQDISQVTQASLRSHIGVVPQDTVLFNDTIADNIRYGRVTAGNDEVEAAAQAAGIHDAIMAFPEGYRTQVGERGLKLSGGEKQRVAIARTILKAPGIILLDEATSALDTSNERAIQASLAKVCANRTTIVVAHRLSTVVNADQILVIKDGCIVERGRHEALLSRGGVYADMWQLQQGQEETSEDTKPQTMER

INS1 = assay: INS-1E survival protection against cytokine death – cell-based, luminescence, retest, dose response (AID 449756); format: functional; conditions: Rattus norvegicus;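 also: cell death triggered by IL-1 beta plus TNF-alpha plus IFN-gamma mixture; protective hits raise ATP signal compared with cytokine alone wells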
[4] = target: Heat shock protein HSP 90-alpha (Homo sapiens, UniProt P07900); format: functional, organism-based
[5] = non-specific 3'UTR reporter inhibition in Clone20-Shn3RL – cell-based, Renilla luciferase, cherry-picked, counter-screen for Shn3 inhibitor project, dose response (AID 624133); format: functional
[6] = reduction of Shn3 3'UTR-driven luciferase in osteoblasts – cell-based, Clone20 osteoblasts, firefly luciferase, cherry-picked, dose response (AID 624132); format: functional;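 also: firefly luciferase luminescence from reporter carrying the Shn3 3'UTR in osteoblasts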
[7] = test system: Streptococcus sp. 'group A'; assay: Streptococcus pyogenes SK(-)GAS viability under kanamycin – luminescence, BacTiterGlo, confirmation, counter-screen for streptokinase expression inhibitor project, dose response (AID 1900); format: functional, organism-based
Interleukin-8 [8] = target: T4, Interleukin-8 (Homo sapiens, UniProt P10145); assay: Dose Response confirmation of uHTS small molecule hits for cystic fibrosis induced NFkb Inhibitors in a PAF-induced IL8 counterscreen.; format: functional; conditions: read-out: IC50_Mean
T4 sequence (P10145 whole entry): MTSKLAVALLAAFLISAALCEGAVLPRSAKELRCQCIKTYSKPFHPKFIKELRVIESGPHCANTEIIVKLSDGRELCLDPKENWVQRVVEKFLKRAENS

Interleukin-8 [9] = target: T4, Interleukin-8; assay: Dose Response confirmation of uHTS small molecule hits for cystic fibrosis induced NFkb Inhibitors in a TNFa-induced IL8 counterscreen.; format: functional; conditions: read-out: IC50_Mean
[10] = target: T5, Apoptotic protease-activating factor 1 (Homo sapiens, UniProt O14727); assay: SAR analysis of small molecule Activators of Apaf-1 in a Fluorescent assay.; format: functional; conditions: read-out: EC50_Mean;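 also: caspase-3 cleavage of fluorogenic Rh110 DEVD substrate downstream of apoptosome activation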
T5 sequence (O14727 whole entry): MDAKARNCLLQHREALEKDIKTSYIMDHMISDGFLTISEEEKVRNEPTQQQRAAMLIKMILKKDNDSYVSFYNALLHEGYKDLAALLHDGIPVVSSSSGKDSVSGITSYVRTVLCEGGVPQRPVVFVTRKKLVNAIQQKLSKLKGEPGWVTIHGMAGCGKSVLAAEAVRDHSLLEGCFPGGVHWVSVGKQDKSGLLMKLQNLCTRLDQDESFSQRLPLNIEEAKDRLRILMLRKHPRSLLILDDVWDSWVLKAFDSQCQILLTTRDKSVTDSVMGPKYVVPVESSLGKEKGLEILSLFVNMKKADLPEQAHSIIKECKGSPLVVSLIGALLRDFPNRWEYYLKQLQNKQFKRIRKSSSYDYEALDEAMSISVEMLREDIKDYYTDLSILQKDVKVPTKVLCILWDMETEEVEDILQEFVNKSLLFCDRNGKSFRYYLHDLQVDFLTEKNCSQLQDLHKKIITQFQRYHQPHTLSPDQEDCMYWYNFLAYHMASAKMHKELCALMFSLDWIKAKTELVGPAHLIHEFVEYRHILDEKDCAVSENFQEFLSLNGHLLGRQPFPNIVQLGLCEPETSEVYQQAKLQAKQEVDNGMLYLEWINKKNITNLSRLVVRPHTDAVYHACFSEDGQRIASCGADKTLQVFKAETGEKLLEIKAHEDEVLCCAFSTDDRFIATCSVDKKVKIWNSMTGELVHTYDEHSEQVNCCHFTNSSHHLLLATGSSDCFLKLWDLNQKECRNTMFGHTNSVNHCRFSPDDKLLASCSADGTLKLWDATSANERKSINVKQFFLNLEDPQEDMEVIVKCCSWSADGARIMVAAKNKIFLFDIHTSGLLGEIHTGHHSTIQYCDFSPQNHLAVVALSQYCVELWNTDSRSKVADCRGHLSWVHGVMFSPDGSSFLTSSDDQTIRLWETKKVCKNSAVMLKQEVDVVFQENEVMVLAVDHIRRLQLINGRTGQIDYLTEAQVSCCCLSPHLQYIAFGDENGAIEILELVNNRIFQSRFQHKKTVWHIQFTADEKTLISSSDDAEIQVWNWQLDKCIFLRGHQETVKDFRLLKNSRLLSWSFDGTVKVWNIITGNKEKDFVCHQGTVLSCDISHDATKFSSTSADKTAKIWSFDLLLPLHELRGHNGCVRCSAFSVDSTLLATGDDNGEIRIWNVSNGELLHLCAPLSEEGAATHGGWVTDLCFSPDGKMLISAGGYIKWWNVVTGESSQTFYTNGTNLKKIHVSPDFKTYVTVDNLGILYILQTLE

[11] = target: DNA (cytosine-5)-methyltransferase 1 (Homo sapiens, UniProt P26358); assay: inhibition of DNA methylation by DNMT1 – biochemical, fluorescent molecular beacon, confirmation (AID 602386); format: functional
Chain of DNA (cytosine-5)-methyltransferase 1 (P26358 whole entry): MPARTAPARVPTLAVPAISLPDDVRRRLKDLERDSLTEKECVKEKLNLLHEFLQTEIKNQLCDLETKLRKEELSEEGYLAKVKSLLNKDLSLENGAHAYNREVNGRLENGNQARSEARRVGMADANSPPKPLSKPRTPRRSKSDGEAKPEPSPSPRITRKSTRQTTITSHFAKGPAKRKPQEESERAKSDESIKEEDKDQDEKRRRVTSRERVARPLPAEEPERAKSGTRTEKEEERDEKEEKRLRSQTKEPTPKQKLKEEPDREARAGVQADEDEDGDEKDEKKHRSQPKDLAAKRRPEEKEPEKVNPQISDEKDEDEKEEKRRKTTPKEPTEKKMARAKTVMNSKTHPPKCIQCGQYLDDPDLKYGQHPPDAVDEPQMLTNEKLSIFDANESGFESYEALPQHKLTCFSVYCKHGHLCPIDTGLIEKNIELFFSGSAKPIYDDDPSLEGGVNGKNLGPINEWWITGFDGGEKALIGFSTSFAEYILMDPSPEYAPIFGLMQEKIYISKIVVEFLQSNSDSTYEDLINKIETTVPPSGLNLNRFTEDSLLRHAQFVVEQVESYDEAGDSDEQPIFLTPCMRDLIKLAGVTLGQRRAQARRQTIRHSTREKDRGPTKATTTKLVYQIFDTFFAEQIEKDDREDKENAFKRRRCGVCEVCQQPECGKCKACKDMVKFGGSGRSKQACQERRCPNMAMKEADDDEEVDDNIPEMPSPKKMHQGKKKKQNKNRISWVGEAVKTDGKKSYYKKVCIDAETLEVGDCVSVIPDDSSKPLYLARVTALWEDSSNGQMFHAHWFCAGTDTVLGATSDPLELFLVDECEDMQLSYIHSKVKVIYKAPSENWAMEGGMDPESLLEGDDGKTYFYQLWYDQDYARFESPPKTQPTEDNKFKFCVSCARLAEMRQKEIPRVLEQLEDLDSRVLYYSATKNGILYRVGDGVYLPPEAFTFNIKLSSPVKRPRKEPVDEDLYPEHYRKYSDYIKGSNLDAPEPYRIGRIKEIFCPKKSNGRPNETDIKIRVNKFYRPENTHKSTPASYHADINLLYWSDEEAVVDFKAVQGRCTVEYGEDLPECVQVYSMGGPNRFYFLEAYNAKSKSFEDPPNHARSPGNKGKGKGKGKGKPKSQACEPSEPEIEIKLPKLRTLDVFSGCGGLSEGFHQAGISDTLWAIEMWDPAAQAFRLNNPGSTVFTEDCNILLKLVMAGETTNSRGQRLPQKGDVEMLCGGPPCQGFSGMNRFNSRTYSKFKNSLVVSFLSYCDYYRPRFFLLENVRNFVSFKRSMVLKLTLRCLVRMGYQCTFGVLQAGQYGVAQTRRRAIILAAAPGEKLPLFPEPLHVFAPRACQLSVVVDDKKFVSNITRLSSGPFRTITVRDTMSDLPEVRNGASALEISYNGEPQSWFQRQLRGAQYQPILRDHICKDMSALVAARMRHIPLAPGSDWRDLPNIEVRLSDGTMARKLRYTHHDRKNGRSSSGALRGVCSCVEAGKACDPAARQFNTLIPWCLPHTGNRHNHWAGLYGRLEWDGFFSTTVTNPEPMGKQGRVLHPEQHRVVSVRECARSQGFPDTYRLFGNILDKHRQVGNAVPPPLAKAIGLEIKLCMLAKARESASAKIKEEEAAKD

[12] = target: T6, Polyadenylate-binding protein 1 (Homo sapiens, UniProt P11940); assay: MLLE binding blockers, Cy5 peptide tracer – biochemical, fluorescence polarization, Cy5-PAM2 peptide, secondary, miRNA deadenylation inhibitor project, dose response (AID 602260); format: functional; conditions: read-out: IC50_Mean
T6 sequence (P11940 whole entry, the tested form may be a part): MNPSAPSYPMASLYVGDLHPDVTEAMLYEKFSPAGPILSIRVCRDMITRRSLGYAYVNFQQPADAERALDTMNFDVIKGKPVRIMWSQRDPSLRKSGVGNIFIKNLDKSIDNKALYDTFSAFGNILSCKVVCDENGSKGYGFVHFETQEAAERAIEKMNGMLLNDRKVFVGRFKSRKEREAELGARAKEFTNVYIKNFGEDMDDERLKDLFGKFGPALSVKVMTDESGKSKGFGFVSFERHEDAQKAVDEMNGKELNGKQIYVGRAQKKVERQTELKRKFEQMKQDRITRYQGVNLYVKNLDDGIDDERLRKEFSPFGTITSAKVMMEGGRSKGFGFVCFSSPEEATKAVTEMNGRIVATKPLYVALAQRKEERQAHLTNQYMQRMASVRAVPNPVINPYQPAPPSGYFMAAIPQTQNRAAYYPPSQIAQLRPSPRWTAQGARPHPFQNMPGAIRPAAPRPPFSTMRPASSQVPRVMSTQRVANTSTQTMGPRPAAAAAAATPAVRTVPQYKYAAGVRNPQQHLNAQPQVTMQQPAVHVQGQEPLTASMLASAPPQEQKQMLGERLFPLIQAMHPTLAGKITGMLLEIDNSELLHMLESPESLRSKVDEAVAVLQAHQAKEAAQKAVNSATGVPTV

[13] = target: T6, Polyadenylate-binding protein 1; assay: MLLE domain peptide-binding blockers, IC50 – biochemical, fluorescence polarization, FITC-PAM2 peptide, dose response (AID 602259); format: functional; conditions: read-out: IC50_Mean

Structure (SMILES): COC(=O)c1ccc(NC(=O)c2nc(S(=O)(=O)Cc3cccc(C)c3)ncc2Cl)cc1
- EC50 (Streptokinase A): > 150 µM (not active)
- IC50 (CHO): 2.53 µM (active)
- EC50 (Protein RecA): 0.228 µM (active)
- AC50 [1]: 33.5 µM (active)
- IC50 (Beta Lactamase): 10.7 µM (inactive)
- AC50 [2]: 0.389 µM (active)
- EC50 (Streptococcus): 3.07 µM (active)
- EC50 [3]: 44.2 µM (active)
- AC50 (INS1): 7.28 µM (active)
- AC50 [4]: 1.26 µM (active)
- AC50 [5]: 5.82 µM (active)
- AC50 [6]: 1.35 µM (active)
- EC50 [7]: 0.941 µM (active)

Structure (SMILES): CC1=C(C(=O)OCc2ccc3c(c2)OCO3)C(c2ccc(O)c([N+](=O)[O-])c2)NC(=O)N1 (centres undefined)
- IC50 (Interleukin-8 [8]): 63.7 µM (inactive)
- IC50 (Interleukin-8 [9]): 39.8 µM (inactive)

Structure (SMILES): O=C(O)CC(CCc1ccccc1)NC(=O)c1cccs1 (centres undefined)
- EC50 [10]: > 100 µM (inactive)

Structure (SMILES): O=C1c2sccc2-c2cccc3cccc1c23
- IC50 [11]: 1.02 µM (active)
- IC50 [12]: > 66 µM (inactive)
- IC50 [13]: 25.5 µM (inactive)
